Test results taken from ChEMBL document CHEMBL3352205, “Indazole- and indole-5-carboxamides: selective and reversible monoamine oxidase B inhibitors with subnanomolar potency” (J Med Chem, 2014).

How the values were obtained:
[1] = target: T1, Amine oxidase [flavin-containing] B (Rattus norvegicus, UniProt P19643); test: Inhibition of rat MAO-B from mitochondria-enriched rat liver fractions using p-tyraimne substrate
T1 sequence (P19643 whole entry): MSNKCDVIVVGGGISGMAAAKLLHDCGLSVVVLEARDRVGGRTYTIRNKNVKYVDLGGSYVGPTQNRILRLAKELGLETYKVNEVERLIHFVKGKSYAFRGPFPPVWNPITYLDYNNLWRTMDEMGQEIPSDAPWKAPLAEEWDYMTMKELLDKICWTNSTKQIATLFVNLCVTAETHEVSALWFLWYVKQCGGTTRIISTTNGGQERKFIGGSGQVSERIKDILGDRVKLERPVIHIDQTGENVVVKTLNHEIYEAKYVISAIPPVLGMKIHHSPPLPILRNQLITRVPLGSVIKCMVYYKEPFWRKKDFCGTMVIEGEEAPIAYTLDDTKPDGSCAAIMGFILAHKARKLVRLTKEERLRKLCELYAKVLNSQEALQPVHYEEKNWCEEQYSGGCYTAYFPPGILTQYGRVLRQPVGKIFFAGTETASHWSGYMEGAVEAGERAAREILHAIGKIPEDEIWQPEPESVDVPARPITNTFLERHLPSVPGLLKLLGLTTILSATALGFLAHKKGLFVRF

[2] = target: T2, Amine oxidase [flavin-containing] A (Homo sapiens, UniProt P21397); test: Inhibition of human recombinant MAO-A expressed in baculovirus-infected insect cells using p-tyraimne substrate
T2 sequence (P21397 whole entry): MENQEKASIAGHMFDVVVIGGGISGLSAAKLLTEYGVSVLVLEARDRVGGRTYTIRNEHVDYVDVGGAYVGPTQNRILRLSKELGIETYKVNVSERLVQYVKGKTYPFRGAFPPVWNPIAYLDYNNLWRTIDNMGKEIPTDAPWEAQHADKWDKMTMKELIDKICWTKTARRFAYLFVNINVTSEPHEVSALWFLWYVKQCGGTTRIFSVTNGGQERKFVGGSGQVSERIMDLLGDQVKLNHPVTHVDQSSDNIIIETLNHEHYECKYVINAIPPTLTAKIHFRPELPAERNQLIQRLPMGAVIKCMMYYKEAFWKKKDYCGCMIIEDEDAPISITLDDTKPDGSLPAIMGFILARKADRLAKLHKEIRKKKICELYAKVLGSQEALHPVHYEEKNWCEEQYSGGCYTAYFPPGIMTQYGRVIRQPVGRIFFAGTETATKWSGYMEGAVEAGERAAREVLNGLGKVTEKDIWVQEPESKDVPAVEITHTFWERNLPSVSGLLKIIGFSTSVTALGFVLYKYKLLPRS

[3] = target: T3, Amine oxidase [flavin-containing] B (Homo sapiens, UniProt P27338); test: biochemical; format: cell-based
T3 sequence (P27338 whole entry): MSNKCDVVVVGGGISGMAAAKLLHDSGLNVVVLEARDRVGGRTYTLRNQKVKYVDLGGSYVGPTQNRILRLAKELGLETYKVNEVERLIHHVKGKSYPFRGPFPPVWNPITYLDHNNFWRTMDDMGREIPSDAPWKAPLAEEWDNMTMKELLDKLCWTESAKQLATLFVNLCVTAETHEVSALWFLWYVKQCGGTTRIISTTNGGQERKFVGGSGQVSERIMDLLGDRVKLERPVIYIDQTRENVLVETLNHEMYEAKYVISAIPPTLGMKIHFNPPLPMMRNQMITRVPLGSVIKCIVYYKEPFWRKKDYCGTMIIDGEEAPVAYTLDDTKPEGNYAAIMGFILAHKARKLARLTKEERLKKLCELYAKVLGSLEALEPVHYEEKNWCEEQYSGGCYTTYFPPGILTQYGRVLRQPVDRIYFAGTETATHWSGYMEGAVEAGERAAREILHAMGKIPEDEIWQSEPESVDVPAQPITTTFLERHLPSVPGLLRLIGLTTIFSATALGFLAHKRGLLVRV
Description: Inhibition of human recombinant MAO-B expressed in baculovirus-infected insect cells using p-tyraimne substrate

[4] = target: T4, Amine oxidase [flavin-containing] A (Rattus norvegicus, UniProt P21396); test: Inhibition of rat MAO-A from mitochondria-enriched rat liver fractions using p-tyraimne substrate
T4 sequence (P21396 whole entry): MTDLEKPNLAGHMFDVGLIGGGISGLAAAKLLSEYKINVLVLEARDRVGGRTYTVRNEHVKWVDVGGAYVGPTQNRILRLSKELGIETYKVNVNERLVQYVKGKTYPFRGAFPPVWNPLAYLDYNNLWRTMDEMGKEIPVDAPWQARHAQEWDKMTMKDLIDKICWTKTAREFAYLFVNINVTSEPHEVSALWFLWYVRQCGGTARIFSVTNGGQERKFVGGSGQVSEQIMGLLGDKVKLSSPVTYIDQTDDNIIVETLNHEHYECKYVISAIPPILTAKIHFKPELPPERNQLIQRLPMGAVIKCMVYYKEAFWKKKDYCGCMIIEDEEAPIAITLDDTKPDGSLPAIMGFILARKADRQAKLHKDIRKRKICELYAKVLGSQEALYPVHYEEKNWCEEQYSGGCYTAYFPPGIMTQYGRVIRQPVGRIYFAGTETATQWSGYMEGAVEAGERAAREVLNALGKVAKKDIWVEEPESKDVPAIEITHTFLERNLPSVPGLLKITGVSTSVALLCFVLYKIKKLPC

Homo sapiens = species on record: Homo sapiens; test: Selectivity index, ratio of IC50 for human recombinant MAO-A to IC50 for human recombinant MAO-B
[5] = target: T4, Amine oxidase [flavin-containing] A; test: Inhibition of rat MAO-A in rat-liver mitochondrial-fraction using [14C]-5-HT substrate
[6] = target: T1, Amine oxidase [flavin-containing] B; test: Inhibition of rat MAO-B in rat-liver mitochondrial-fraction using [14C]-PEA substrate
[7] = target: T3, Amine oxidase [flavin-containing] B; test: Reversible inhibition of human recombinant MAO-B expressed in baculovirus-infected insect cells using p-tyraimne substrate at 1 nM for 22 mins; conditions: 0.001 µM

IC50 [1]	IC50 ([2]; read-out: IC50)	IC50 [3]	IC50 [4]	Ratio IC50 (Homo sapiens)	IC50 [5]	IC50 [6]	IC50 [2]	Compound	inhibition (INH) [7]
> 10 µM	> 10 µM	2.59 µM	> 10 µM					O=C(Nc1ccc2[nH]ncc2c1)c1cccc(Cl)c1Cl	
> 10 µM	> 10 µM	6.22 µM	> 10 µM	2				O=C(Nc1ccc(Cl)c(O)c1)c1ccc2cn[nH]c2c1	
	> 10 µM			15000				O=C(Nc1ccc(Cl)c(F)c1)c1ccc2[nH]ncc2c1	
				80				O=C(Nc1ccc(Cl)c(O)c1)c1ccc2[nH]ncc2c1	
> 10 µM	> 10 µM	> 10 µM	> 10 µM					Cn1cc(C(=O)Nc2ccc3[nH]ncc3c2)ccc1=O	
> 10 µM	> 10 µM	0.882 µM	> 10 µM	> 11				O=C(Cc1ccc(Cl)c(Cl)c1)Nc1ccc2[nH]ncc2c1	
				> 81				O=C(Nc1ccc(O)c(Cl)c1)c1ccc2[nH]ncc2c1	
				2020				COc1cc(NC(=O)c2ccc3[nH]ncc3c2)ccc1Cl	
				2920				COc1ccc(NC(=O)c2ccc3[nH]ncc3c2)cc1Cl	
0.138 µM	> 10 µM	0.0124 µM	> 10 µM	806				O=C(Nc1ccc2[nH]ncc2c1)c1ccc(Cl)c(Cl)c1	
> 10 µM	> 10 µM	3.3 µM	> 10 µM					O=C(Nc1ccc2[nH]ncc2c1)c1c(F)cccc1Cl	
2.67 µM	> 10 µM	0.316 µM	> 10 µM	> 31				O=C(Nc1ccc(Cl)c(F)c1)c1ccc2cn[nH]c2c1	
3.28 µM	> 10 µM	< 10 µM	> 10 µM					O=C(Nc1ccc(O)c(Cl)c1)c1ccc2cn[nH]c2c1	
0.466 µM	3.31 µM	0.0671 µM	< 10 µM	> 49				O=C(Nc1ccc(Cl)c(Cl)c1)c1ccc2cn[nH]c2c1	

More lines, now with the values behind:

Compound	IC50 [1]	IC50 ([2]; read-out: IC50)	IC50 [3]	IC50 [4]	Ratio IC50 (Homo sapiens)	IC50 [5]	IC50 [6]	IC50 [2]	inhibition (INH) [7]
O=C(Nc1ccc(F)c(Cl)c1)c1ccc2cn[nH]c2c1	1.07 µM	> 10 µM	0.234 µM	> 10 µM	> 42				
COc1ccc(NC(=O)c2ccc3cn[nH]c3c2)cc1OC	> 10 µM	> 10 µM	> 10 µM	> 10 µM					
Cn1ccc2cc(C(=O)Nc3ccc(Cl)c(Cl)c3)ccc21	0.00111 µM	> 10 µM	0.00226 µM	> 10 µM	4420				
O=C(Nc1ccc(Cl)c(Cl)c1)c1ccc2nncn2c1	> 10 µM	> 10 µM	2.27 µM	> 10 µM	> 4				
O=C(Nc1ccc2cn[nH]c2c1)c1cnc(N2CCOCC2)c(Cl)c1	1.99 µM	> 10 µM	0.22 µM	> 10 µM	> 9				
O=C(Nc1ccc(Cl)c(Cl)c1)c1ccc2nccn2c1	1.14 µM	> 10 µM	0.141 µM	> 10 µM	71				
O=C(NCc1ccc(Cl)c(Cl)c1)c1ccc2[nH]ncc2c1	0.837 µM	> 10 µM	0.388 µM	> 10 µM	> 25				
O=C(Nc1ccc(F)c(F)c1)c1ccc2cn[nH]c2c1	< 10 µM	> 10 µM	1.3 µM	> 10 µM	> 7				
COc1ccc(NC(=O)c2ccc3cn[nH]c3c2)cc1Cl	< 10 µM	> 10 µM	1.28 µM	> 10 µM	8				
O=C(Nc1cc(Cl)cc(Cl)c1)c1ccc2[nH]ncc2c1	0.00273 µM	> 10 µM	0.00275 µM	> 10 µM	3640				
Cn1ncc2cc(/C=N/c3ccc(Cl)c(Cl)c3)ccc21	0.00455 µM	< 10 µM	0.00103 µM	> 10 µM	9710				
O=C(Nc1ccccc1)c1ccc2[nH]ncc2c1	0.708 µM	> 10 µM	0.117 µM	> 10 µM	> 86				
COc1cc(NC(=O)c2ccc3cn[nH]c3c2)ccc1Cl	> 10 µM	> 10 µM	2.76 µM	> 10 µM	4				
O=C(Nc1cc(Cl)cc(Cl)c1)c1ccc2cn[nH]c2c1	0.423 µM	> 10 µM	0.335 µM	> 10 µM	> 29				
O=C(Nc1ccc(F)c(F)c1)c1ccc2[nH]ncc2c1					6290				
COc1ccc(NC(=O)c2ccc3[nH]ncc3c2)cc1OC					> 54				
O=C(Nc1ccc(Cl)c(Cl)c1)c1ccc2[nH]ccc2c1	0.00101 µM	1.3 µM		6.79 µM					
O=C(Nc1cnc(Cl)c(Cl)c1)c1ccc2[nH]ncc2c1					1840				
C#CCNCc1cc2cc(OCc3ccccc3)ccc2[nH]1						0.022 µM	1.25 µM		
Clc1ccc(/N=C/c2ccc3[nH]ncc3c2)cc1Cl		< 10 µM		> 10 µM					
O=C(Nc1ccc(Cl)c(Cl)c1)c1ccc2[nH]ncc2c1	0.00143 µM	≥ 10 µM		> 10 µM	17100				Active
O=[N+]([O-])c1ccc2[nH]ncc2c1			2.5 µM					Not Active	
